From US20060069132A1, “Azolecarboxamide herbicides” (priority 2004, published 2006)

Legend:
large crabgrass = experiment: Test B pre-/postemergence herbicide test; type: in vivo, Digitaria sanguinalis; details: for Plant response rating (0 to 100 scale), Crabgrass, Large: 0 is no effect, preemergence
Outline: (§1)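 Test chemicals in a non-phytotoxic solvent mixture with surfactant were applied preemergence to seeded species and postemergence to plants 2-18 cm tall (1- to 4-leaf stage); rice and barnyardgrass were also tested in a flooded paddy at the 2-leaf stage. Visual rating versus controls after 13-15 days in greenhouse, scale 0 (no effect) to 100 (complete control).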

Surinam grass = experiment: Test B pre-/postemergence herbicide test; type: in vivo, Urochloa decumbens; details: for Plant response rating (0 to 100 scale), Surinam Grass: 0 is no effect, 100 is complete control, preemergence
Outline: as §1

[1] = tested on: small flower umbrella sedge; experiment: Test B flooded paddy test; type: in vivo, Cyperus difformis; details: scale 0 to 100 (0 no effect, 100 complete control)
Outline: (§2)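 After treating 2-leaf paddy plants or 2–18 cm postemergence plants (1 to 4 leaves) with formulated chemical, researchers kept them in a greenhouse for 13–15 days. Effects were judged visually versus controls: 0 indicates none, 100 total control.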

morningglory = experiment: Test B pre-/postemergence herbicide test; type: in vivo, Ipomoea coccinea; details: for Plant response rating (0 to 100 scale), Morningglory: 0 is no effect, 100 is complete control, preemergence
Outline: (§3)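 Flooded paddy rice and barnyardgrass were treated at the 2-leaf stage; upland plantings received compound either on sown seed or on 1- to 4-leaf seedlings. All were kept 13–15 days in a greenhouse and scored visually, 0–100, relative to untreated plants.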

blackgrass = experiment: Test B postemergence herbicide test; type: in vivo, Alopecurus myosuroides
Outline: as §2

pigweed = experiment: Test B pre-/postemergence herbicide test; type: in vivo, Amaranthus retroflexus; details: for Plant response rating (0 to 100 scale), Pigweed: 0 is no effect, 100 is complete control, preemergence
Outline: as §1

wild oat = experiment: Test B postemergence herbicide test; type: in vivo, Avena fatua
Outline: as §2

giant foxtail = experiment: Test B pre-/postemergence herbicide test; type: in vivo, Setaria faberi; details: for Plant response rating (0 to 100 scale), Foxtail, Giant: 0 is no effect, preemergence
Outline: as §1

rice = experiment: Test B flooded paddy test; type: in vivo, Oryza sativa; details: scale 0 to 100 (0 no effect, 100 complete control)
Outline: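 Paddy species grown to the 2-leaf stage under flooding; blackgrass sprayed postemergence at 2–18 cm (1- to 4-leaf stage). Plants kept in a greenhouse for 13 to 15 days, then visually rated against controls on 0 (no effect) to 100 (complete control).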

barnyardgrass [2] = experiment: Test B pre-/postemergence herbicide test; type: in vivo, Echinochloa crus-galli; details: for Plant response rating (0 to 100 scale), Barnyardgrass: 0 is no effect, preemergence
Outline: as §3

ducksalad = experiment: Test B flooded paddy test; type: in vivo, Heteranthera limosa; details: scale 0 to 100 (0 no effect, 100 complete control)
Outline: as §2

cocklebur = experiment: Test B pre-/postemergence herbicide test; type: in vivo, Xanthium strumarium; details: for Plant response rating (0 to 100 scale), Cocklebur: 0 is no effect, preemergence
Outline: as §3

wheat = experiment: Test B postemergence herbicide test; type: in vivo, Triticum aestivum; set-up: key to Wheat plant response rating: 0 = no effect, 100 = complete control
Outline: as §2

lambsquarters = experiment: Test B pre-/postemergence herbicide test; type: in vivo, Chenopodium album; details: for Plant response rating (0 to 100 scale), Lambsquarters: 0 is no effect, 100 is complete control, preemergence
Outline: as §1

corn = experiment: Test B pre-/postemergence herbicide test; type: in vivo, Zea mays; details: for Plant response rating (0 to 100 scale), Corn: 0 is no effect, preemergence
Outline: as §1

barnyardgrass [3] = experiment: Test B flooded paddy test; type: in vivo, Echinochloa crus-galli; details: scale 0 to 100 (0 no effect, 100 complete control)
Outline: as §2

velvetleaf = experiment: Test B pre-/postemergence herbicide test; type: in vivo, Abutilon theophrasti; details: for Plant response rating (0 to 100 scale), Velvetleaf: 0 is no effect, 100 is complete control, preemergence
Outline: as §1

[4] = Postemergence, 500 g ai/ha, scale 0 (no effect) to 100 (complete control)
[5] = postemergence, 125 g ai/ha, scale 0 to 100
[6] = Postemergence, 125 g ai/ha, scale 0 (no effect) to 100 (complete control)
[7] = 500 g ai/ha, scale 0 to 100, 0 no effect, 100 complete control, preemergence
[8] = 125 g ai/ha, 100 is complete control
[9] = 125 g ai/ha, visual rating, scale 0 (no effect) to 100 (complete control), postemergence
[10] = postemergence, 500 g ai/ha, scale 0 to 100, 0 is no effect, 100 is complete control

With `C=CCN(CC=C)C(=O)c1cccc(NC(=O)c2nn(C(C)(C)C)nc2C)n1` [Compound 439] the “Crabgrass, Large plant response rating” value (large crabgrass; [4]) was 0, the “Crabgrass, Large plant response rating” value (large crabgrass; [5]) was 0 and the “Surinam Grass plant response rating” value (Surinam grass; [4]) was 0. The “Surinam Grass plant response rating” value (Surinam grass; [5]) was 0, the “Sedge, Umbrella plant response rating” value ([1]; 125 g ai/ha) was 0 and the “Morningglory plant response rating” value (morningglory; [4]) was 30. The “Morningglory plant response rating” value (morningglory; [5]) was 0, the “Blackgrass plant response rating” value (blackgrass; [4]) was 10 and the “Blackgrass plant response rating” value (blackgrass; [5]) was 0. The “Pigweed plant response rating” value (pigweed; [4]) was 10, the “Pigweed plant response rating” value (pigweed; [5]) was 0 and the “Oat, Wild plant response rating” value (wild oat; [4]) was 10. The “Oat, Wild plant response rating” value (wild oat; [5]) was 0, the “Foxtail, Giant plant response rating” value (giant foxtail; [4]) was 0 and the “Foxtail, Giant plant response rating” value (giant foxtail; [5]) was 0. The “Rice plant response rating” value (rice; 125 g ai/ha) was 0, the “Barnyardgrass plant response rating” value (barnyardgrass [2]; [6]) was 0 and the “Barnyardgrass plant response rating” value (barnyardgrass [2]; [4]) was 0. For the same compound, the “Ducksalad plant response rating” value (ducksalad; 125 g ai/ha) was 0, the “Cocklebur plant response rating” value (cocklebur; [4]) was 0 and the “Cocklebur plant response rating” value (cocklebur; [5]) was 0. The “Wheat plant response rating” value (wheat; [7]) was 0, the “Wheat plant response rating” value (wheat; [4]) was 10 and the “Wheat plant response rating” value (wheat; [5]) was 0. The “Lambsquarters plant response rating” value (lambsquarters; [4]) was 0, the “Lambsquarters plant response rating” value (lambsquarters; [5]) was 0 and the “Corn plant response rating” value (corn; [4]) was 0. For the same compound, the “Corn plant response rating” value (corn; [5]) was 0, the “Barnyardgrass plant response rating” value (barnyardgrass [3]; 125 g ai/ha) was 0 and the “Velvetleaf plant response rating” value (velvetleaf; [4]) was 0. For the same compound, the “Velvetleaf plant response rating” value (velvetleaf; [5]) was 0.

`CCOC(=O)c1ccnc(NC(=O)c2nn(C(C)(C)C)nc2C)c1` [Compound 421] was tested, and the “Plant response rating (0 to 100 scale), Crabgrass, Large” value (large crabgrass; [8]) was 0, the “Crabgrass, Large plant response rating” value (large crabgrass; [4]) was 0 and the “Crabgrass, Large plant response rating” value (large crabgrass; [5]) was 0. The “Plant response rating (0 to 100 scale), Surinam Grass” value (Surinam grass; 125 g ai/ha) was 0, the “Surinam Grass plant response rating” value (Surinam grass; [4]) was 0 and the “Surinam Grass plant response rating” value (Surinam grass; [5]) was 0. The “Sedge, Umbrella plant response rating” value ([1]; 1000 g ai/ha) was 0, the “Plant response rating (0 to 100 scale), Morningglory” value (morningglory; 125 g ai/ha) was 0 and the “Morningglory plant response rating” value (morningglory; [4]) was 0. For the same compound, the “Morningglory plant response rating” value (morningglory; [5]) was 0, the “Blackgrass plant response rating” value (blackgrass; [4]) was 20 and the “Blackgrass plant response rating” value (blackgrass; [5]) was 20. For the same compound, the “Plant response rating (0 to 100 scale), Pigweed” value (pigweed; 125 g ai/ha) was 0, the “Pigweed plant response rating” value (pigweed; [4]) was 0 and the “Pigweed plant response rating” value (pigweed; [5]) was 0. The “Oat, Wild plant response rating” value (wild oat; [4]) was 0, the “Oat, Wild plant response rating” value (wild oat; [5]) was 0 and the “Plant response rating (0 to 100 scale), Foxtail, Giant” value (giant foxtail; [8]) was 0. For the same compound, the “Foxtail, Giant plant response rating” value (giant foxtail; [4]) was 0, the “Foxtail, Giant plant response rating” value (giant foxtail; [5]) was 0 and the “Rice plant response rating” value (rice; 1000 g ai/ha) was 0. For the same compound, the “Plant response rating (0 to 100 scale), Barnyardgrass” value (barnyardgrass [2]; [8]) was 0, the “Barnyardgrass plant response rating” value (barnyardgrass [2]; [6]) was 0 and the “Barnyardgrass plant response rating” value (barnyardgrass [2]; [4]) was 0. For the same compound, the “Ducksalad plant response rating” value (ducksalad; 1000 g ai/ha) was 0, the “Plant response rating (0 to 100 scale), Cocklebur” value (cocklebur; [8]) was 0 and the “Cocklebur plant response rating” value (cocklebur; [4]) was 0. For the same compound, the “Cocklebur plant response rating” value (cocklebur; [5]) was 0, the “Wheat plant response rating” value (wheat; [7]) was 0 and the “Wheat plant response rating” value (wheat; [4]) was 0. The “Wheat plant response rating” value (wheat; [5]) was 0, the “Plant response rating (0 to 100 scale), Lambsquarters” value (lambsquarters; 125 g ai/ha) was 0 and the “Lambsquarters plant response rating” value (lambsquarters; [4]) was 0. The “Lambsquarters plant response rating” value (lambsquarters; [5]) was 0, the “Plant response rating (0 to 100 scale), Corn” value (corn; [8]) was 0 and the “Corn plant response rating” value (corn; [4]) was 0. For the same compound, the “Corn plant response rating” value (corn; [5]) was 0, the “Barnyardgrass plant response rating” value (barnyardgrass [3]; 1000 g ai/ha) was 0 and the “Plant response rating (0 to 100 scale), Velvetleaf” value (velvetleaf; 125 g ai/ha) was 0. The “Velvetleaf plant response rating” value (velvetleaf; [4]) was 0 and the “Velvetleaf plant response rating” value (velvetleaf; [5]) was 0.

For `C=CCN(CC=C)C(=O)c1ccc(F)c(NC(=O)c2nn(C(C)(C)C)nc2CC)c1` [Compound 387], the “Plant response rating (0 to 100 scale), Crabgrass, Large” value (large crabgrass; [8]) was 0, the “Crabgrass, Large plant response rating” value (large crabgrass; [9]) was 0 and the “Crabgrass, Large plant response rating” value (large crabgrass; [10]) was 0. For the same compound, the “Plant response rating (0 to 100 scale), Surinam Grass” value (Surinam grass; 125 g ai/ha) was 0, the “Surinam Grass plant response rating” value (Surinam grass; [9]) was 0 and the “Surinam Grass plant response rating” value (Surinam grass; [4]) was 0. For the same compound, the “Sedge, Umbrella plant response rating” value ([1]; 1000 g ai/ha) was 0, the “Plant response rating (0 to 100 scale), Morningglory” value (morningglory; 125 g ai/ha) was 0 and the “Morningglory plant response rating” value (morningglory; [9]) was 0. The “Morningglory plant response rating” value (morningglory; [4]) was 10, the “Blackgrass plant response rating” value (blackgrass; [9]) was 0 and the “Blackgrass plant response rating” value (blackgrass; [10]) was 20. For the same compound, the “Plant response rating (0 to 100 scale), Pigweed” value (pigweed; 125 g ai/ha) was 0, the “Pigweed plant response rating” value (pigweed; [9]) was 20 and the “Pigweed plant response rating” value (pigweed; [4]) was 40. The “Oat, Wild plant response rating” value (wild oat; [9]) was 0, the “Oat, Wild plant response rating” value (wild oat; [4]) was 30 and the “Plant response rating (0 to 100 scale), Foxtail, Giant” value (giant foxtail; [8]) was 0. For the same compound, the “Foxtail, Giant plant response rating” value (giant foxtail; [9]) was 0, the “Foxtail, Giant plant response rating” value (giant foxtail; [10]) was 20 and the “Rice plant response rating” value (rice; 1000 g ai/ha) was 0. The “Plant response rating (0 to 100 scale), Barnyardgrass” value (barnyardgrass [2]; [8]) was 0, the “Barnyardgrass plant response rating” value (barnyardgrass [2]; [9]) was 0 and the “Barnyardgrass plant response rating” value (barnyardgrass [2]; [10]) was 0. For the same compound, the “Ducksalad plant response rating” value (ducksalad; 1000 g ai/ha) was 0, the “Plant response rating (0 to 100 scale), Cocklebur” value (cocklebur; [8]) was 0 and the “Cocklebur plant response rating” value (cocklebur; [9]) was 0. The “Cocklebur plant response rating” value (cocklebur; [10]) was 20, the “Wheat plant response rating” value (wheat; [9]) was 0 and the “Wheat plant response rating” value (wheat; [7]) was 0. For the same compound, the “Wheat plant response rating” value (wheat; [4]) was 10, the “Plant response rating (0 to 100 scale), Lambsquarters” value (lambsquarters; 125 g ai/ha) was 0 and the “Lambsquarters plant response rating” value (lambsquarters; [9]) was 20. For the same compound, the “Lambsquarters plant response rating” value (lambsquarters; [4]) was 20, the “Plant response rating (0 to 100 scale), Corn” value (corn; [8]) was 0 and the “Corn plant response rating” value (corn; [9]) was 0. For the same compound, the “Corn plant response rating” value (corn; [10]) was 0, the “Barnyardgrass plant response rating” value (barnyardgrass [3]; 1000 g ai/ha) was 0 and the “Plant response rating (0 to 100 scale), Velvetleaf” value (velvetleaf; 125 g ai/ha) was 0. The “Velvetleaf plant response rating” value (velvetleaf; [9]) was 0 and the “Velvetleaf plant response rating” value (velvetleaf; [4]) was 10.
